Assay results from patent publication US11548893B2 (priority 2017, dated 2023).
Read-outs that look alike come from different tables or passages of the source.

How the values were obtained:
[1] = tested on: MARV (full-length glycoprotein, VSV pseudotype); assay: microbe, parasite or virus in culture; format: cell-based, Marburg marburgvirus; settings: read-out: EC50 Pseudotype Assays MARV
[2] = tested on: BDBV (mucin-deleted glycoprotein, VSV pseudotype); assay: microbe, parasite or virus in culture; format: cell-based, Bundibugyo ebolavirus; settings: read-out: EC50 Pseudotype Assays BDBV
[3] = tested on: EBOV_FL: full-length Ebola Zaire GP (VSV pseudotype); assay: microbe, parasite or virus in culture; format: cell-based, Zaire ebolavirus; settings: read-out: EC50 Pseudotype Assays EBOV_FL
[4] = tested on: EBOV (mucin-deleted glycoprotein, VSV pseudotype); assay: microbe, parasite or virus in culture; format: cell-based, Zaire ebolavirus; settings: read-out: EC50 Pseudotype Assays EBOV
[5] = tested on: SUDV (glycoprotein, VSV pseudotype); assay: microbe, parasite or virus in culture; format: cell-based, Sudan ebolavirus; settings: read-out: EC50 Pseudotype Assays SUDV
in vitro [6] = settings: African green monkey, Cytotox CC50
[7] = tested on: VSV (native full-length glycoprotein); assay: microbe, parasite or virus in culture; format: cell-based; settings: Vesicular stomatitis virus, Vero, read-out: EC50 Pseudotype Assays VSV
Vero cells = settings: African green monkey
Sudan Gulu [8] = assay: organism not typed; settings: HeLa, read-out: Sudan Gulu EC50
[9] = microsomes, 1 h
[10] = microsomes, 1 h; remark: listed apart in the source
[11] = microsomes, 1 h; remark: listed apart in the source
Ebola Zaire [12] = tested on: Ebola Zaire
Ebola Zaire [13] = assay: microbe, parasite or virus in culture; settings: Zaire ebolavirus, HeLa, read-out: Ebola Zaire EC50
Sudan Gulu [14] = tested on: Sudan Gulu
[15] = microsomes, 1 h; remark: listed apart in the source
Ebola Zaire [16] = tested on: Ebola Zaire; remark: listed apart in the source
Ebola Zaire [17] = assay: microbe, parasite or virus in culture; settings: Zaire ebolavirus, read-out: Ebola Zaire EC90
Ebola Zaire [18] = assay: microbe, parasite or virus in culture; settings: Zaire ebolavirus, read-out: Ebola Zaire EC50
in vitro [19] = settings: African green monkey
EBOV (Mayinga) = assay: microbe, parasite or virus in culture; format: cell-based, Ebola virus; settings: for EC50: Zaire ebolavirus, Vero
[20] = Vesicular stomatitis virus, Vero, 24 h

CC12CC3CC(C(=O)NC4CCNCC4)(C1)CC(c1ccccc1)(C3)C2 (racemic) [Example A1]
EC50 [1, 20]: 2.8 µM
EC50 [2, 20]: 0.16 µM
EC50 ([3]; Zaire ebolavirus, Vero, 24 h): 0.04 µM
EC50 ([4]; Zaire ebolavirus, Vero, 24 h): 0.042 µM
EC50 [5, 20]: 0.38 µM
CC50 (in vitro [6]): 16.1 µM
EC50 [7]: > 10 µM

CC12CC3CC(C(=O)N[C@H]4CC[C@H](CN)CC4)(C1)CC(c1ccccc1)(C3)C2 (mixture of isomers) [Example A3]
EC50 [1, 20]: 7 µM
EC50 [2, 20]: 0.095 µM
EC50 ([3]; Zaire ebolavirus, Vero, 24 h): 0.04 µM
EC50 ([4]; Zaire ebolavirus, Vero, 24 h): 0.026 µM
EC50 [5, 20]: 0.03 µM
CC50 (in vitro [6]): 8 µM
EC50 [7]: > 10 µM

C[C@H]1C[C@@H](NC(=O)C23CC4CC(C)(C2)CC(c2ccccc2)(C4)C3)CCN1 (mixture of isomers) [Example A4]
EC50 [1, 20]: 7.1 µM
EC50 [2, 20]: 0.198 µM
EC50 ([3]; Zaire ebolavirus, Vero, 24 h): 0.025 µM
EC50 ([4]; Zaire ebolavirus, Vero, 24 h): 0.022 µM
EC50 [5, 20]: 0.73 µM
CC50 (in vitro [6]): 11.7 µM
EC50 [7]: > 10 µM

CC12CC3CC(C(=O)N[C@@H]4CCNC[C@H]4F)(C1)CC(c1ccccc1)(C3)C2 (mixture of isomers) [Example A5]
EC50 [1, 20]: 4.88 µM
EC50 [2, 20]: 0.19 µM
EC50 ([3]; Zaire ebolavirus, Vero, 24 h): 0.03 µM
EC50 ([4]; Zaire ebolavirus, Vero, 24 h): 0.05 µM
EC50 [5, 20]: 0.41 µM
CC50 (in vitro [6]): 11.3 µM
EC50 [7]: > 10 µM

CCC12CC3CC(C(=O)N[C@@H]4CCNC[C@H]4F)(C1)CC(c1ccccc1)(C3)C2 (mixture of isomers) [Example A18]
EC50 [1]: 3.5 µM
EC50 [2]: 0.203 µM
EC50 [3]: 0.03 µM
EC50 [4]: 0.2 µM
EC50 [5]: 0.303 µM
CC50 (Vero cells): 9.8 µM

CC12CC3CC(C(=O)N4CCC(N)C(C)(C)C4)(C1)CC(c1ccccc1)(C3)C2 (racemic) [Example A35]
EC50 (Sudan Gulu [8]): 0.14 µM
EC50 [2, 20]: 0.071 µM
Liver Microsome Stability % Remaining after 60 Minutes, Monkey [9]: 22%
EC50 ([3]; Zaire ebolavirus, Vero, 24 h): 0.02 µM
Liver Microsome Stability % Remaining after 60 Minutes, Mouse [10]: 42%
Liver Microsome Stability % Remaining after 60 Minutes, Human [11]: 97%
Ebola Zaire SI (CC50/EC50) (Ebola Zaire [12]): 29
EC50 (Ebola Zaire [13]): 1.14 µM
Sudan Gulu SI (CC50/EC50) (Sudan Gulu [14]): 136
EC50 ([4]; Zaire ebolavirus, Vero, 24 h): 0.01 µM
EC50 [5, 20]: 0.08 µM
CC50 (in vitro [6]): 10.2 µM
Liver Microsome Stability % Remaining after 60 Minutes, Guinea Pig [15]: 45%

CCC12CC3CC(C(=O)NC4CCNCC4(C)C)(C1)CC(c1ccccc1)(C3)C2 (racemic) [Example A52]
EC50 [1]: 1.2 µM
EC50 [2]: 0.168 µM
EC50 [3]: 0.03 µM
EC50 [4]: 0.038 µM
EC50 [5]: 0.4 µM
CC50 (Vero cells): 5.7 µM

CC12CC3CC(C(=O)N[C@H]4CN5CCC4CC5)(C1)CC(c1ccccc1)(C3)C2 (mixture of isomers) [Example A58]
EC50 [1, 20]: 0.282 µM
EC50 [2, 20]: 0.198 µM
EC50 ([3]; Zaire ebolavirus, Vero, 24 h): 0.07 µM
EC50 ([4]; Zaire ebolavirus, Vero, 24 h): 0.074 µM
EC50 [5, 20]: 0.383 µM
CC50 (in vitro [6]): 7.2 µM
EC50 [7]: > 10 µM

CC12CC3CC(CN4CCC(N)CC4)(C1)CC(c1ccccc1)(C3)C2 (stereo not shown) [Example A69]
EC50 (Sudan Gulu [8]): 0.07 µM
EC50 [1, 20]: 0.95 µM
EC50 [2, 20]: 0.163 µM
Liver Microsome Stability % Remaining after 60 Minutes, Monkey [9]: 68%
Liver Microsome Stability % Remaining after 60 Minutes, Mouse [10]: 100%
Liver Microsome Stability % Remaining after 60 Minutes, Human [11]: 98%
Ebola Zaire SI (CC50/EC50) (Ebola Zaire [12]): 16
EC50 (Ebola Zaire [13]): 0.44 µM
Sudan Gulu SI (CC50/EC50) (Sudan Gulu [14]): 58
EC50 ([4]; Zaire ebolavirus, Vero, 24 h): 0.321 µM
EC50 [5, 20]: 0.29 µM
CC50 (in vitro [6]): 2.2 µM
Liver Microsome Stability % Remaining after 60 Minutes, Guinea Pig [15]: 65%

C[C@@]12CC3CC(C(=O)NC4CCNCC4)(CC(c4ccccc4)(C3)C1)C2 [Example B1]
EC50 (Sudan Gulu [8]): 0.12 µM
EC50 [1, 20]: > 3 µM
Ebola Zaire SI (CC50/EC90) (Ebola Zaire [16]): >48
EC50 [2, 20]: 0.238 µM
Liver Microsome Stability % Remaining after 60 Minutes, Monkey [9]: 83%
EC50 ([3]; Zaire ebolavirus, Vero, 24 h): 0.01 µM
Liver Microsome Stability % Remaining after 60 Minutes, Mouse [10]: 87%
Liver Microsome Stability % Remaining after 60 Minutes, Human [11]: 81%
EC90 (Ebola Zaire [17]): 2.1 µM
Ebola Zaire SI (CC50/EC50) (Ebola Zaire [12]): 51
EC50 (Ebola Zaire [13]): 0.64 µM
Sudan Gulu SI (CC50/EC50) (Sudan Gulu [14]): 285
EC50 ([4]; Zaire ebolavirus, Vero, 24 h): 0.034 µM
EC50 [5, 20]: 0.25 µM
CC50 (in vitro [6]): 12.3 µM
EC50 (Ebola Zaire [18]): > 3.2 µM

C[C@]12CC3CC(C(=O)N[C@H]4CC[C@H](CN)CC4)(C1)C[C@@](c1ccccc1)(C3)C2 [Example B3]
EC50 (Sudan Gulu [8]): 0.12 µM
EC50 [1, 20]: 3.6 µM
Ebola Zaire SI (CC50/EC90) (Ebola Zaire [16]): 23
EC50 [2, 20]: 0.114 µM
Liver Microsome Stability % Remaining after 60 Minutes, Monkey [9]: 61%
EC50 ([3]; Zaire ebolavirus, Vero, 24 h): 0.01 µM
Liver Microsome Stability % Remaining after 60 Minutes, Mouse [10]: 27%
Liver Microsome Stability % Remaining after 60 Minutes, Human [11]: 83%
EC90 (Ebola Zaire [17]): 0.6 µM
EC50 (Ebola Zaire [13]): 0.57 µM
Sudan Gulu SI (CC50/EC50) (Sudan Gulu [14]): 119
EC50 ([4]; Zaire ebolavirus, Vero, 24 h): 0.009 µM
EC50 [5, 20]: 0.23 µM
CC50 (in vitro [6]): 6.11 µM
EC50 (Ebola Zaire [18]): 0.43 µM

C[C@H]1C[C@@H](NC(=O)C23CC4C[C@@](C)(C2)C[C@](c2ccccc2)(C4)C3)CCN1 [Example B4]
EC50 (Sudan Gulu [8]): 0.15 µM
EC50 [1, 20]: > 3 µM
Ebola Zaire SI (CC50/EC90) (Ebola Zaire [16]): >35
EC50 [2]: 0.104 µM
Liver Microsome Stability % Remaining after 60 Minutes, Monkey [9]: 54%
Liver Microsome Stability % Remaining after 60 Minutes, Mouse [10]: 92%
Liver Microsome Stability % Remaining after 60 Minutes, Human [11]: 82%
EC90 (Ebola Zaire [17]): 2.9 µM
Ebola Zaire SI (CC50/EC50) (Ebola Zaire [12]): 54
EC50 (Ebola Zaire [13]): 0.62 µM
Sudan Gulu SI (CC50/EC50) (Sudan Gulu [14]): 155
EC50 [4]: 0.013 µM
EC50 [5]: 0.166 µM
CC50 (in vitro [6]): 22.5 µM

C[C@H]1C[C@@H](NC(=O)C23CC4C[C@@](C)(C2)C[C@](c2ccccc2)(C4)C3)CCN1 [Example B15]
EC50 [2]: 0.21 µM
EC50 [4]: 0.035 µM
EC50 [5]: 0.61 µM
CC50 (Vero cells): 14.8 µM

C[C@]12CC3CC(C(=O)N[C@H]4CN5CCC4CC5)(C1)C[C@@](c1ccccc1)(C3)C2 [Example B58]
EC50 (Sudan Gulu [8]): 0.15 µM
EC50 [1, 20]: 1.68 µM
CC50 (in vitro [19]): 25.7 µM
Ebola Zaire SI (CC50/EC90) (Ebola Zaire [16]): 6.5
EC50 [2, 20]: 0.23 µM
EC90 (Ebola Zaire [17]): 4.4 µM
EC50 (Ebola Zaire [13]): 0.9 µM
Sudan Gulu SI (CC50/EC50) (Sudan Gulu [14]): 157
EC50 ([4]; Zaire ebolavirus, Vero, 24 h): 0.036 µM
SI50 (CC50/EC50) (EBOV (Mayinga)): 64
EC50 (EBOV (Mayinga)): 0.4 µM
EC50 [5, 20]: 0.22 µM
CC50 (in vitro [6]): 8 µM
EC50 (Ebola Zaire [18]): 0.4 µM

C[C@@]12CC3CC(C(=O)N[C@H]4CC[C@@H](N)CC4)(C1)C[C@](c1ccccc1)(C3)C2 [Example C2]
EC50 [1, 20]: 8.72 µM
CC50 (in vitro [19]): 21.4 µM
EC50 [2, 20]: 0.252 µM
EC50 ([3]; Zaire ebolavirus, Vero, 24 h): 0.209 µM
EC50 ([4]; Zaire ebolavirus, Vero, 24 h): 0.135 µM
SI50 (CC50/EC50) (EBOV (Mayinga)): 8
EC50 (EBOV (Mayinga)): 2.67 µM
EC50 [5, 20]: 0.767 µM
CC50 (in vitro [6]): 25.5 µM
